Results from patent publication US4591589A, “2-aryl pyrazolo[4,3-c]cinnolin-3-ones” (Roussel Uclaf, priority 1985, dated 1986).
pIC50: −log10 of the molar value. Structures can show the parent of a compound that is named as a salt.

What was measured:
[1] = system: mice; assay: Acute toxicity (lethal dose LD0); format: in vivo; conditions: oral
Procedure: The lethal dose LD0 of the compound of Example 1 was evaluated after administration orally in mice. The maximum dose not causing any mortality in 8 days was called the LD0.

[2] = system: mice; assay: Plate test in mice (electric shocks); format: in vivo; conditions: for anxiety reducing activity (plate test): conclusion in words, mice (Example 1 also rats)
Procedure: (§1) The apparatus (Apelab) and the method used are described by BOISSER et al [European J. Pharmacol., 1968, Vol. 4, p. 145]. The plates were linked to a stimulator (U. Sachs, Roucaire) which enabled electric shocks of 120 volts to be delivered during 0.5 seconds. The tests were carried out on groups of 10 mice or rats half an hour after oral administration of the compound studied and each animal has put individually on the apparatus. After 15 seconds of free exploration, it was submitted to an electric shock each time it passed from one plate to another, a minimum of 3 seconds being observed between two shocks. The number of shocks delivered was counted over 1 minute and the results obtained were compared to those observed in the control animals in a test by Dunnett.

[3] = system: rats; assay: Staircase test; format: in vivo; conditions: 20 mg/kg; 1 hour after administration; counted for 3 minutes
Procedure: The apparatus and the method used are described by THIEBOT et al [Psychol-pharmacologia (Berlin), 1973, Vol. 31, p. 77]. The experiment was carried out on groups of 15 inexperienced rats and the animals were put individually in the enclosure 1 hour after administration of the compound studied. The number of straightenings up and the number of steps claimed were counted for 3 minutes.

[4] = system: rats; assay: Plate test in rats (electric shocks); format: in vivo; conditions: oral, 20 mg/kg, half an hour after administration, vs control
Procedure: as §1

[5] = target: benzodiazepine receptors; assay: Affinity for benzodiazepine receptors (displacement of 3H diazepam, rat brain cortex homogenate); format: binding; conditions: rat brain cortices; 3H diazepam 10^-9 M, 30 minutes at 0° C., pH 7.4; read-out: Cl 50 (concentration inhibiting by 50% the specific bonding of 3H diazepam)
Procedure: The cortices removed from the brains of male rats weighing an average of 150 g were homogenized to one twentieth part (weight/volume) in 0.32M sucrose. After centrifuging the homogenate at 1000 g for 10 minutes at 0° C., the supernatant layer was centrifuged at 30,000 g for 20 minutes at +4° C. The residue was suspended in 20 volumes of Tris HCl 50 mM buffer with a pH of 7.4 and centrifuged at 30,000 g for 20 minutes at +4° C. The new residue obtained was suspended in 50 ml of Krebs Tris HCl buffer, pH 7.4.
2 ml of this suspension in the presence of ^3 H diazepam at a concentration of 10^-9 M was incubated for 30 minutes at 0° C., alone, and with increasing concentrations of the product under test, or to determine the non-specific fixation, with non-radio-active diazepam at a concentration of 10^-6 M. The incubated suspensions were filtered on Whatman GF/C and the filters were washed twice with 5 ml of Krebs Tris HCl buffer, pH 7.4, at 0° C. The radioactivity of the filters was measured by liquid scintillation. The activity of the product was expressed by CI 50: concentration inhibiting by 50% the specific bonding of ^3 H diazepam, determined graphically.

Structure (SMILES) | LD0 (maximum dose not causing any mortality in 8 days) [1] | pIC50 [5] | also measured
O=c1c2n[nH]c3ccc(Cl)cc3c-2nn1-c1ccccc1 [Example 1, 8-chloro-2,5-dihydro-2-phenyl-3H-pyrazolo[4,3-c]cinnolin-3-one] | > 400 |  | increase in number of shocks delivered ([2]; mice, oral, 20 mg/kg, half an hour after administration, vs control): 63%; decrease in number of straightenings up [3]: 46%; increase in number of shocks delivered [4]: 41%
O=c1c2n[nH]c3ccccc3c-2nn1-c1ccc(Cl)cc1 [Example 2, 2-(4-chlorophenyl)-2,5-dihydro-3H-pyrazolo[4,3-c]cinnolin-3-one] |  | 8.43 | 
O=c1c2n[nH]c3ccccc3c-2nn1-c1ccccc1 [Example 3, 2,5-dihydro-2-phenyl-3H-pyrazolo[4,3-c]cinnolin-3-one] | > 200 | 9.05 | anxiety reducing activity (plate test) [2]: good anxiety reducing activity; increase in number of shocks ([2]; mice, oral, 50 mg/kg, half an hour after administration, vs control): 50%
COc1ccc(-n2nc3c4ccccc4[nH]nc-3c2=O)cc1 [Example 4, 2,5-dihydro-2-(4-methoxyphenyl)-3H-pyrazolo[4,3-c]cinnolin-3-one] | > 400 | 8.60 | 
O=c1c2n[nH]c3ccccc3c-2nn1-c1ccc(OCc2ccccc2)cc1 [Example 5, 2,5-dihydro-2-(4-benzyloxyphenyl)-3H-pyrazolo[4,3-c]cinnolin-3-one] | > 400 | 7.74 | 
O=c1c2n[nH]c3ccccc3c-2nn1-c1cccc(C(F)(F)F)c1 [Example 6, 2,5-dihydro-2-(3-trifluoromethylphenyl)-3H-pyrazolo[4,3-c]cinnolin-3-one] | > 400 |  | 
Cc1ccccc1-n1nc2c3ccccc3[nH]nc-2c1=O [Example 7, 2,5-dihydro-2-(2-methylphenyl)-3H-pyrazolo[4,3-c]cinnolin-3-one] | 200 |  | 
Cl.O=c1c2n[nH]c3ccccc3c-2nn1-c1ccccn1 [Example 8, 2,5-dihydro-(2-pyridin-2-yl)-3H-pyrazolo[4,3-c]cinnolin-3-one hydrochloride] | > 400 | 8.51 | anxiety reducing activity (plate test) [2]: good anxiety reducing activity; increase in number of shocks ([2]; mice, oral, 100 mg/kg, half an hour after administration, vs control): 50%
O=c1c2n[nH]c3ccccc3c-2nn1-c1nccs1 [Example 9, 2,5-dihydro-(2-thiazol-2-yl)-3H-pyrazolo[4,3-c]cinnolin-3-one hydrochloride] |  | 8.51 | 
O=c1c2n[nH]c3ccccc3c-2nn1C1=NCCS1 [Example 10, 2,5-dihydro-(2-dihydrothiazol-2-yl)-3H-pyrazolo[4,3-c]cinnolin-3-one hydrochloride] | > 400 |  | 
